Results reported in patent US10752615B2, “Spirocyclic containing compounds and pharmaceutical uses thereof” (GB005, Inc., priority 2016, dated 2020).

What was measured:
BTK = BTK (Homo sapiens (Human), UniProt Q06187); assay: Kinase inhibition assay (Nanosyn, microfluidic detection), BTK; assay type: biochemical; conditions: 1 mM ATP, 3 hours at 25° C.
Description: (§1) The in vitro kinase assays were performed at Nanosyn (Santa Clara, Calif.) utilizing microfluidic detection technology. The test compounds were serially pre-diluted in DMSO and added, by the acoustic dispensing (Labcyte® 550), directly to 384 well assay plates into 10 uL of a buffer with enzyme (ITK, TXK, BTK or TEC) comprising: 100 mM HEPES, pH7.5, 5 mM MgCl2, 0.1% bovine serum albumin, 1 mM DTT, 0.01% Triton X-100 and the enzyme. Final DMSO concentration was maintained at 1% in all samples, including the controls. The reactions were initiated by addition of ATP (1 mM final concentration) and the fluorescently labeled peptide substrate to a final concentration of 1 uM, and incubated for 3 hours at 25° C. Following incubation, the reactions were quenched by addition of 40 μL of termination buffer (100 mM HEPES, pH7.5, 0.01% Triton X-100, 50 mM EDTA). Terminated plates were analyzed using Caliper LabChip® 3000 microfluidic electrophoresis instrument (Caliper Life Sciences/Perkin Elmer). The enzymatic modification of the peptide substrate (phosphorylation) results in a change of net charge enabling electrophoretic separation of product from substrate. As substrate and product are separated by electrophoresis, two peaks of fluorescence are observed. Change in the relative fluorescence intensity of the substrate and product peaks was the parameter measured, reflecting enzyme activity. In the presence of inhibitor, the ratio between product and substrate is altered: signal of the product decreases, while the signal of the substrate increases. Activity in each test sample was determined as the product to sum ratio (PSR): P/(S+P), where P is the peak height of the product and S is the peak height of the […]. For each compound, enzyme activity was measured at 12 concentrations spaced by 3× dilution intervals. Negative control samples (0%-inhibition in the absence of inhibitor, DMSO only) and positive control samples (100%-inhibition, in the absence of enzyme or in the presence of control inhibitor) were assembled in replicates of four and were used to calculate %-inhibition values in the presence of compounds. Percent inhibition (Pinh) was determined using the following equation: Pinh=(PSR0%−PSRinh)/(PSR0%−PSR100%)*100, where PSRinh is the product sum ratio in the presence of inhibitor, PSR0% is the product sum ratio in the absence of inhibitor and PSR100% is the product sum ratio in 100%-inhibition control samples. To determine IC50 values, the inhibition curves (Pinh versus inhibitor concentration) were fitted by 4 parameter sigmoid dose-response model using XLfit software (IDBS).

TXK = TXK (Homo sapiens (Human), UniProt P42681); assay: Kinase inhibition assay (Nanosyn, microfluidic detection), TXK; assay type: biochemical; conditions: 1 mM ATP, 3 hours at 25° C.
Description: as §1, with “The enzymatic modification of the peptide substrate (phosphorylation) results in a change of net charge enabling electrophoretic separation of product from substrate.” left out

Chain of BTK (Q06187 whole entry): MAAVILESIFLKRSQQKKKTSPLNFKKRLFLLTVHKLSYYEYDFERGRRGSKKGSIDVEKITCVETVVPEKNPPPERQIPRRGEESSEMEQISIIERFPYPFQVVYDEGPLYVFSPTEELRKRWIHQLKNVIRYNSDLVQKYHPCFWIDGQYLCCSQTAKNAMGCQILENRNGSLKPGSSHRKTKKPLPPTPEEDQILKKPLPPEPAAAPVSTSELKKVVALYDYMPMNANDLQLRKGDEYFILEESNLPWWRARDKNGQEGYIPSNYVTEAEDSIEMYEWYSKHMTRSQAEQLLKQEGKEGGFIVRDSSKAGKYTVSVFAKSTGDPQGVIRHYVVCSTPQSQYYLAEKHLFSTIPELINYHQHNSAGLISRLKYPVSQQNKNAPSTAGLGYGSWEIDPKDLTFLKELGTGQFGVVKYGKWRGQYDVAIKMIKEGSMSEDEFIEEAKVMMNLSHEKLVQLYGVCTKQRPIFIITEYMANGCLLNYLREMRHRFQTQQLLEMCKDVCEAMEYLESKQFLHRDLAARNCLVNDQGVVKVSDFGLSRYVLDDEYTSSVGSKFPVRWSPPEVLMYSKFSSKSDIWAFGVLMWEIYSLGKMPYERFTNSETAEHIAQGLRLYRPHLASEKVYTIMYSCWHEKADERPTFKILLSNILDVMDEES
Chain of TXK (P42681 whole entry): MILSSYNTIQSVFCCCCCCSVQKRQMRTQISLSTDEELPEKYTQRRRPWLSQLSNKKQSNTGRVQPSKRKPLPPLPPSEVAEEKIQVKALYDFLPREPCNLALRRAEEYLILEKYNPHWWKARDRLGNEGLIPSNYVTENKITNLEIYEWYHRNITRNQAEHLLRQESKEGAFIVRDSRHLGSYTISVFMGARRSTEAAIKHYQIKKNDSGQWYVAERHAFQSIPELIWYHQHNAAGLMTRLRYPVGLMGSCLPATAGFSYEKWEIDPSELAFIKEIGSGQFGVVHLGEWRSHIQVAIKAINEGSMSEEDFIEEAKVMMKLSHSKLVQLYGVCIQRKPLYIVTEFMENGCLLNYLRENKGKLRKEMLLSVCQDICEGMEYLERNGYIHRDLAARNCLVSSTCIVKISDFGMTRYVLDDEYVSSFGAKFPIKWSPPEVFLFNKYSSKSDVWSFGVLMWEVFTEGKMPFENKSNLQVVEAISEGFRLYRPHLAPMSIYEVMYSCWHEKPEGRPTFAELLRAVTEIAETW

C=CC(=O)N1CC[C@]2(C1)C[C@H](n1c(NC(=O)c3cccc(-c4cnco4)c3)nc3ccccc31)C2 [Compound 49]
IC50 (BTK): 13.7 nM
IC50 (TXK): 1.39 nM

C=CC(=O)N1CC[C@]2(C1)C[C@H](n1c(NC(=O)c3ccc(OC)nc3)nc3cc(CN[C@@H](C)C(C)(C)C)ccc31)C2 [Compound 32]
IC50 (BTK): 5.45 nM
IC50 (TXK): 0.7 nM

C=CC(=O)N1CC[C@]2(C1)C[C@H](n1c(NC(=O)c3ccc(-c4cnco4)s3)nc3cc(N(C)C(=O)[C@H](C)N4CCOCC4)ccc31)C2 [Compound 59]
IC50 (BTK): 1.64 nM
IC50 (TXK): 0.44 nM

C=CC(=O)N1CC[C@]2(C1)C[C@H](n1c(NC(=O)c3ccc(-c4cnc(C)nc4)s3)nc3ccccc31)C2 [Compound 135]
IC50 (BTK): 12.7 nM
IC50 (TXK): 8.67 nM

C=CC(=O)N1CC[C@]2(C1)C[C@H](n1c(NC(=O)c3cccnc3)nc3cc(CN[C@@H](C)C(C)(C)C)ccc31)C2 [Compound 22]
IC50 (BTK): 4.79 nM
IC50 (TXK): 1.71 nM

C=CC(=O)N1CC[C@]2(C1)C[C@@H](n1c(NC(=O)c3ccc(-c4cnco4)s3)nc3cccc(F)c31)C2 [Compound 62]
IC50 (BTK): 10.5 nM
IC50 (TXK): 1.58 nM

C=CC(=O)N1CC[C@]2(C1)C[C@H](n1c(NC(=O)c3ccc(-c4cc[nH]n4)s3)nc3ccccc31)C2 [Compound 116]
IC50 (BTK): 15.7 nM
IC50 (TXK): 3.08 nM

C=CC(=O)N1CC[C@]2(C1)C[C@H](n1c(NC(=O)c3ccc(-c4cncc(NC)c4)s3)nc3ccccc31)C2 [Compound 142]
IC50 (BTK): 0.62 nM
IC50 (TXK): 0.48 nM

C=CC(=O)N1CC[C@]2(C1)C[C@H](n1c(NC(=O)c3ccc(-c4ccc(OC)nc4)s3)nc3ccccc31)C2 [Compound 95]
IC50 (BTK): 19.4 nM
IC50 (TXK): 9.12 nM

C=CC(=O)N1CC[C@]2(C1)C[C@H](n1c(NC(=O)c3ccc(-c4ccnc(F)c4)s3)nc3ccccc31)C2 [Compound 125]
IC50 (BTK): 1.06 nM
IC50 (TXK): 0.24 nM

C=CC(=O)N1CC[C@]2(C1)C[C@H](n1c(NC(=O)c3ccnc(C)c3)nc3cc(CN[C@@H](C)C(C)(C)C)ccc31)C2 [Compound 24]
IC50 (BTK): 5.47 nM
IC50 (TXK): 0.99 nM

C=CC(=O)N1CC[C@]2(C1)C[C@H](n1c(NC(=O)c3ccc(-c4cncc(NC)n4)s3)nc3ccccc31)C2 [Compound 140]
IC50 (BTK): 0.54 nM
IC50 (TXK): 0.2 nM

C=CC(=O)N1CC[C@]2(C1)C[C@H](n1c(NC(=O)c3ccc(-c4cnco4)s3)nc3cc(N(C)C(=O)C4CCOCC4)ccc31)C2 [Compound 51]
IC50 (BTK): 0.73 nM
IC50 (TXK): 0.44 nM

C=CC(=O)N1CC[C@]2(C1)C[C@@H](n1c(NC(=O)c3ccc(-c4cnco4)s3)nc3c(F)cccc31)C2 [Compound 67]
IC50 (BTK): 99.2 nM
IC50 (TXK): 19.7 nM

C=CC(=O)N1CC[C@]2(C1)C[C@H](n1c(NC(=O)c3cnc(C)s3)nc3cc(CN[C@@H](C)C(C)(C)C)ccc31)C2 [Compound 8]
IC50 (BTK): 2.36 nM
IC50 (TXK): 0.67 nM

C=CC(=O)N1CC[C@]2(C1)C[C@H](n1c(NC(=O)c3ccc(-c4cncnc4C)s3)nc3ccccc31)C2 [Compound 134]
IC50 (BTK): 8.36 nM
IC50 (TXK): 1.01 nM

C=CC(=O)N1CC[C@]2(C1)C[C@H](n1c(NC(=O)c3ccc(-c4cn[nH]c4)s3)nc3ccccc31)C2 [Compound 124]
IC50 (BTK): 1.43 nM
IC50 (TXK): 0.34 nM

C=CC(=O)N1CC[C@]2(C1)C[C@H](n1c(NC(=O)c3cccs3)nc3ccccc31)C2 [Compound 82]
IC50 (BTK): 33.2 nM
IC50 (TXK): 3.33 nM

C=CC(=O)N1CC[C@]2(C1)C[C@H](n1c(NC(=O)c3ccc(-c4ccccc4)s3)nc3ccccc31)C2 [Compound 103]
IC50 (BTK): 6.12 nM
IC50 (TXK): 0.93 nM

C=CC(=O)N1CC[C@]2(C1)C[C@H](n1c(NC(=O)c3ccc(-c4cccnc4)s3)nc3ccccc31)C2 [Compound 90]
IC50 (BTK): 5.23 nM
IC50 (TXK): 0.51 nM

C=CC(=O)N1CC[C@]2(C1)C[C@H](n1c(NC(=O)c3ccc(-c4ccncn4)s3)nc3ccccc31)C2 [Compound 133]
IC50 (BTK): 3.27 nM
IC50 (TXK): 0.37 nM

C=CC(=O)N1CC[C@]2(C1)C[C@H](n1c(NC(=O)c3ccc(-c4cccc(NC)n4)s3)nc3ccccc31)C2 [Compound 139]
IC50 (BTK): 1.54 nM
IC50 (TXK): 0.75 nM

C=CC(=O)N1CC[C@]2(C1)C[C@H](n1c(NC(=O)c3ccc(-c4cnco4)s3)nc3c(F)cccc31)C2 [Compound 61]
IC50 (BTK): 6.77 nM
IC50 (TXK): 0.49 nM

C=CC(=O)N1CC[C@]2(C1)C[C@H](n1c(NC(=O)c3ccc(-c4cnco4)s3)nc3cc(N(C)C(=O)C4CC4)ccc31)C2 [Compound 52]
IC50 (BTK): 0.58 nM
IC50 (TXK): 0.39 nM

C=CC(=O)N1CC[C@]2(C1)C[C@H](n1c(NC(=O)c3ccc(-c4cc(NC)ncn4)s3)nc3ccccc31)C2 [Compound 145]
IC50 (BTK): 0.49 nM
IC50 (TXK): 0.2 nM

C=CC(=O)N1CC[C@]2(C1)C[C@H](n1c(NC(=O)c3ccc(-c4cnco4)s3)nc3cc(Cl)ccc31)C2 [Compound 63]
IC50 (BTK): 1.29 nM
IC50 (TXK): 0.37 nM

C=CC(=O)N1CC[C@]2(C1)C[C@@H](n1c(NC(=O)c3ccc(-c4cnco4)s3)nc3ccc(CN4CCCC4)cc31)C2 [Compound 86]
IC50 (BTK): 8.41 nM
IC50 (TXK): 2.24 nM

C=CC(=O)N1CC[C@]2(C1)C[C@H](n1c(NC(=O)c3ccc(-c4cnco4)s3)nc3cc(CN4CCOCC4)ccc31)C2 [Compound 41]
IC50 (BTK): 1.81 nM
IC50 (TXK): 0.92 nM

C=CC(=O)N1CC[C@]2(C1)C[C@H](n1c(NC(=O)c3ccc(-c4cnccn4)s3)nc3ccccc31)C2 [Compound 132]
IC50 (BTK): 10.3 nM
IC50 (TXK): 1.99 nM

C=CC(=O)N1CC[C@]2(C1)C[C@H](n1c(NC(=O)c3ccc(-c4cnco4)cc3)nc3cc(CN[C@@H](C)C(C)(C)C)ccc31)C2 [Compound 39]
IC50 (BTK): 5.67 nM
IC50 (TXK): 0.97 nM

C=CC(=O)N1CC[C@]2(C1)C[C@H](n1c(NC(=O)c3ccc(C#N)cc3)nc3ccccc31)C2 [Compound 48]
IC50 (BTK): 4.37 nM
IC50 (TXK): 1.16 nM

C=CC(=O)N1CC[C@]2(C1)C[C@H](n1c(NC(=O)c3ccc(-c4cncn4C)s3)nc3ccccc31)C2 [Compound 123]
IC50 (BTK): 5.33 nM
IC50 (TXK): 0.49 nM

C=CC(=O)N1CC[C@]2(C1)C[C@H](n1c(NC(=O)c3cc(C)cs3)nc3ccccc31)C2 [Compound 79]
IC50 (BTK): 251 nM
IC50 (TXK): 17 nM

C=CC(=O)N1CC[C@]2(C1)C[C@H](n1c(NC(=O)c3ccc(-c4cnco4)s3)nc3cc(CN[C@H]4C[C@H](O)C4)ccc31)C2 [Compound 43]
IC50 (BTK): 0.53 nM
IC50 (TXK): 0.32 nM

C=CC(=O)N1CC[C@]2(C1)C[C@H](n1c(NC(=O)c3ccc(-c4ccnc(C)c4)s3)nc3ccccc31)C2 [Compound 147]
IC50 (BTK): 0.41 nM
IC50 (TXK): 0.21 nM

C=CC(=O)N1CC[C@]2(C1)C[C@H](n1c(NC(=O)c3ccc(-c4ccnc(CO)c4)s3)nc3ccccc31)C2 [Compound 146]
IC50 (BTK): 0.57 nM
IC50 (TXK): 0.22 nM

C=CC(=O)N1CC[C@]2(C1)C[C@H](n1c(NC(=O)c3ccc(-c4cccnn4)s3)nc3ccccc31)C2 [Compound 76]
IC50 (BTK): 22.6 nM
IC50 (TXK): 2.8 nM
